Usually pKi stands for −log10 of the Ki, conventionally taken in molar units.

Drawing on BindingDB's records for doi:10.1021/jm970166j (Roche Bioscience, 1997), this text covers pKi for four molecules.

The target of one test is D(2) dopamine receptor (Homo sapiens, UniProt P14416). The test is described as follows: The compound's binding affinity against Dopamine receptor D2.
Test [1] deals with T1, 5-hydroxytryptamine receptor 1A (Mus musculus, UniProt Q64264).
T1 sequence (Q64264 whole entry): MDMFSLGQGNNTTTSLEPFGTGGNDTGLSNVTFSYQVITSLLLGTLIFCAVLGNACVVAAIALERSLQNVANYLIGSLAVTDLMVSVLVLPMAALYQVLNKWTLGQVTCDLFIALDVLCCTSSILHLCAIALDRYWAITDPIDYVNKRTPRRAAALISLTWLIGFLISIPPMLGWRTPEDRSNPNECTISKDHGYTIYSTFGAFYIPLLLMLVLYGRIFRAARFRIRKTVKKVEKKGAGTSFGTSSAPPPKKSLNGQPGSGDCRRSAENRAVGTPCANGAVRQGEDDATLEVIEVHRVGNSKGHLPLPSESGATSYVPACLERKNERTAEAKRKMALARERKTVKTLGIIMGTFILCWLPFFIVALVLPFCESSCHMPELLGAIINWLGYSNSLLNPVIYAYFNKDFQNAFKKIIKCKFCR
The test is described as follows: The compound's binding affinity against 5-hydroxytryptamine 1A receptor.

Test [2] deals with T2, Alpha-2B adrenergic receptor (Rattus norvegicus, UniProt P19328).
T2 sequence (P19328 whole entry): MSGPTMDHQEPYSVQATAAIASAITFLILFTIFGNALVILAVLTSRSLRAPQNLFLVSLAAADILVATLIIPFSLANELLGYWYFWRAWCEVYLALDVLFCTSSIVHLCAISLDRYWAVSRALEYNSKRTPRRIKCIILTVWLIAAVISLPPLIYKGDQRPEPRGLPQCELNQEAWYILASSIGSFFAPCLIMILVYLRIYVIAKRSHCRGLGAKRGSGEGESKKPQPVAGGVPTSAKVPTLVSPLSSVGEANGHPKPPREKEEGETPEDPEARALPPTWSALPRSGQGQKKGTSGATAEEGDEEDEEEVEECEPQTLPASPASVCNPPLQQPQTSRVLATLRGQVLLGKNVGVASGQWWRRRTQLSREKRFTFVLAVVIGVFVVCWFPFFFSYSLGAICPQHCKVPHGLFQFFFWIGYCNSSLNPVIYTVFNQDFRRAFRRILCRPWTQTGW
The test is described as follows: The compound's binding affinity against Alpha-2B adrenergic receptor from rat kidney homogenate in the presence of phentolamine.

Sequence of D(2) dopamine receptor (P14416 whole entry): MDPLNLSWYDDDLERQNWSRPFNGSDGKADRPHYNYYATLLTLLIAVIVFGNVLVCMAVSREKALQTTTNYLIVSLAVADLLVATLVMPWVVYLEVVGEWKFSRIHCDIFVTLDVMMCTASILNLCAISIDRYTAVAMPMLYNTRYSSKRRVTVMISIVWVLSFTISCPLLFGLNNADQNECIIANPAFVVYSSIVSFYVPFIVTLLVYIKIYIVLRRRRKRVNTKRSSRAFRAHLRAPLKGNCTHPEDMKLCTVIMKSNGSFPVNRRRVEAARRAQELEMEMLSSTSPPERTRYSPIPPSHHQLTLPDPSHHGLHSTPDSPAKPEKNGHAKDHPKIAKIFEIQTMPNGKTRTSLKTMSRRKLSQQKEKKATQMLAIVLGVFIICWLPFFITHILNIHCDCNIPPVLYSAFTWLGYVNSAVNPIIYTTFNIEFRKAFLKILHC

As for `COc1cc(F)ccc1N1CCN(CCCNc2c(C(=O)N(C)C)cnc3c2c(C)nn3C)CC1`, the pKi worked out at 6.4 at D(2) dopamine receptor and 6.5 in test [1].

In the case of `Cc1nn(C)c2ncc(C(=O)N(C)C)c(NCCCN3CCN(c4ccccc4OCC(F)(F)F)CC3)c12`, the pKi in test [2] stood at 8.6; on D(2) dopamine receptor it was 8.1; in test [1] it was 7.5.

On to `COc1ccccc1N1CCN(CCCNc2ncccc2C(=O)N(C)C)CC1`, for which the pKi is 7.4 at D(2) dopamine receptor and 7.6 in test [1].

Consider `COc1cc(F)ccc1N1CCN(CCCNc2ncccc2C(=O)N(C)C)CC1`, for which the figures for the pKi (in test [2]; on D(2) dopamine receptor; in test [1]) were 6.5, 6.7 and 6.7, respectively.
